The subject of one experiment is FVII. Particulars: mice, siRNA formulations; Jayaraman et al. 2012; cited from earlier work.
The subject of experiment [1] is 22Rv1 cells modified to stably express luciferase. The experiment in a line: Luciferase knockdown by siRNA-LNPs in 22Rv1 cells. Type of experiment: cell-based. The following applies: Homo sapiens; siRNA-LNP 50/10/38.5/1.5, N/P 3; 22Rv1 luciferase cells; read-out: half maximal effective siRNA concentration (EC50). Here is the method: The LNPs contain 50/10/38.5/1.5 mol % of ionizable lipid/DSPC/chol/PEG-DMG (N/P=3) and the siRNA encodes luciferase.
An siRNA targeted against firefly luciferase purchased from Integrated DNA Technologies (IDT, Coralville, IA) was used to assess ability of LNP to knockdown firefly luciferase in a cell line.
LNP formulations containing the ionizable lipids, nor-KC2 or MC3, DSPC, cholesterol, and PEG-DMG were prepared containing siRNA encoding luciferase. The lipid nanoparticles comprise 50/10/38.5/1.5 mol % of ionizable lipid/DSPC/chol/PEG-DMG and the nitrogen-to-phosphorus ratio (N/P) was 3.

≈ marks a conversion by molar mass, not a printed value.

For the molecule `CCCCC/C=C\C/C=C\CCCCCCCCC1(CCCCCCCC/C=C\C/C=C\CCCCC)OCC(CCN(C)C)O1` (stereo not drawn) [KC2], in the experiment with FVII, the ED50 for FVII gene silencing is 0.1 mg/kg.
On to `CCCCC/C=C\C/C=C\CCCCCCCCC(CCCCCCCC/C=C\C/C=C\CCCCC)OC(=O)CCCN(C)C` [MC3, dilinoleyl-methyl-4-dimethylaminobutyrate], for which, in experiment [1], the EC50 is 0.131 µg/mL (≈ 0.204 µM).
As to `CCCCC/C=C\C/C=C\CCCCCCCC1(CCCCCCC/C=C\C/C=C\CCCCC)OCC(CCN(C)C)O1` (stereo not drawn) [nor-KC2, 2-(2,2-Di((8Z,11Z)-heptadeca-8,11-dien-1-yl)-1,3-dioxolan-4-yl)-N,N-dimethylethan-1-amine], the EC50 in experiment [1] stood at 0.137 µg/mL (≈ 0.224 µM).

These data come from patent US20240300914A1, “KC2-Type Lipids” (NanoVation Therapeutics Inc., priority 2021, published 2024).
